Entries after “also recorded” stand apart in the source; their conditions may differ. No end group written: not given here.
Columns and labels:
[1] = test system: neurospheres; test: Multipotency of neurospheres (neuron, oligodendrocyte, astrocyte derived from each neurosphere); assay type: cell-based; details: neurospheres produced in the factor(s)
Protocol: The protocols for neural stem cell culture are described in detail in U.S. Pat. No. 5,750,376 or Shingo et al., 2001. Briefly, embryonic neural stem cells were prepared from E14 medial and lateral ganglionic eminences. Adult neural stem cells were prepared from the subventricular zone of adult mice. The tissue was cultured in basal medium containing 20 ng/ml EGF, or other growth factors as indicated in each case, to form neurospheres. The composition of the basal medium is as follows: DMEM/F12 (1:1); glucose (0.6%); glutamine (2 mM); sodium bicarbonate (3 mM); HEPES (5 mM); insulin (25 μg/ml); transferrin (100 μg/ml); progesterone ([…]); putrescine (60 μM); and selenium chloride (30 nM).
Accordingly, we compared the expandability and multipotency of neurospheres that were produced in EGF alone or EGF plus CNTF. For expandability, pass 1 neurospheres were dissociated and replated at clonal density to generate pass 2 neurospheres, and the number of pass 2 neurospheres that were derived from a single pass 1 sphere was counted. […] Therefore, neural stem cells differentiate to glial cells by default, which can be inhibited by CNTF.

[2] = test system: neural stem cells in the subventricular zone; test: Subcutaneous administration, number of neural stem cells in the subventricular zone; assay type: in vivo
[3] = Forelimb inhibition test in focal ischemic injury (stroke) model; assay type: in vivo; details: rats with focal ischemic injury; first infusion days 1-7, second infusion days 8-14
Excerpt: (§1) Adult male Long-Evans rats (250-350 g) were obtained from Charles River Breeding Farms and were adapted to the colony for two weeks prior to any treatment. A week before surgery the rats were given a baseline testing on the behavioral tests.
(§2) The animals for the stroke study received unilateral devascularization of the sensorimotor cortex. Using Isoflurane anesthesia, the skin was incised and retracted and the overlying fascia were removed from the skull. A skull opening was made at the following coordinates, taking care not to damage the dura: AP +4.0 to −2.0; L 1.5 to 4 (the parasagittal ridge; Kolb et al., 1997). The dura was cut and retracted from the skull opening. A cotton swab soaked in sterile saline was gently rubbed across the exposed pia and the vessels were removed. A hole was then drilled in the contralateral hemisphere to provide an opening for the cannulae attached to the osmotic minipump at AP −0.5; L 1.5. […]
(§3) Six days later the animals were assessed using the behavioral test. […]
In normal rats, swimming is accomplished by propulsion from the hind limbs. […] Inhibition of the forelimbs was assessed by filming animals while swimming. […]
(§4) The animals then received various test factors, and the effects of these factors on the forelimb inhibition test and brain anatomy were assessed. […]

[4] = Forelimb asymmetry test in focal ischemic injury (stroke) model; assay type: in vivo; details: rats with focal ischemic injury; first infusion days 1-7, second infusion days 8-14
Excerpt: as §1
as §2, with “removed.” for “removed. A hole was then drilled in the contralateral hemisphere to provide an opening for the cannulae attached to the osmotic minipump at AP −0.5; L 1.5.”
as §3
Forepaw asymmetry of the animals was determined by filming them from below while in an acrylic cylinder 25 cm in diameter, on an acrylic platform. Preference was determined by separately counting the number of times in 5 minutes that an animal reared and placed the left or right forepaw on the surface of the cylinder in a gesture of postural stabilization. […]
as §4

[5] = test system: migrating neuronal progenitor cells; test: Brain anatomical analysis (Cresyl Violet, Doublecortin) in focal ischemic injury (stroke) model; assay type: in vivo; details: rats with focal ischemic injury, end of week 6
Excerpt: The animals for the stroke study received unilateral devascularization of the sensorimotor cortex. Using Isoflurane anesthesia, the skin was incised and retracted and the overlying fascia were removed from the skull. A skull opening was made at the following coordinates, taking care not to damage the dura: AP +4.0 to −2.0; L 1.5 to 4 (the parasagittal ridge; Kolb et al., 1997). The dura was cut and retracted from the skull opening. A cotton swab soaked in sterile saline was gently rubbed across the exposed pia and the vessels were removed. A hole was then drilled in the contralateral hemisphere to provide an opening for the cannulae attached to the osmotic minipump at AP −0.5; L 1.5. An osmotic minipump was placed under the skin between the shoulder blades and a tube connected under the skin to the cannulae, which was attached to the skull with fast-drying cement. Once hemostasis had been achieved the scalp was sutured closed with 5-O sterile suture. The animals were given a single injection of Banamine (an analgesic) and returned to their home cage. Sham animals received only anesthesia, the bone opening, and the skin was incised and sutured. […] The animals then received various test factors, and the effects of these factors on the forelimb inhibition test and brain anatomy were assessed. […]

Substance	glial cells generated by neurospheres, relative to those produced in EGF plus CNTF [1] [times]	delivery by subcutaneous administration to modulate the number of neural stem cells in the subventricular zone [2]	forepaw inhibition / motor function in the forelimb inhibition test [3]	recovery of forelimb asymmetry / motor function in the forelimb asymmetry test [4]	doublecortin staining / doublecortin positive cells in the brain [5]
EGF: epidermal growth factor; human recombinant EGF for infusion (NSDSECPLSHDGYCLHDGVCMYIEALDKYACNCVVGYIGERCQYRDLKWWELR; UniProt P01133 971-1023, looked up)	4				
IGF-1: IGF-1, a factor said to proliferate neural stem cells		effectively delivered			
PACAP: pituitary adenylate cyclase activating polypeptide (HSDGIFTDSYSRYRKQMAVKKYLAAVLGKRYKQRVKNK; ends and bridges not checked; UniProt P18509 132-169, looked up)		effectively delivered			
growth hormone: growth hormone, first infusion days 1-7, then CSF (Group 5)		effectively delivered	reversed effect	improvement of motor functions; also recorded: recovered from asymmetrical forelimb usage; also recorded: improved a motor neuron-related function; also recorded: reversed effect	increased doublecortin positive cells

From US7604993B2, “Combined regulation of neural cell production” (Stem Cell Therapeutics Inc., priority 2001, dated 2009)
